Each structure is given as a SMILES string. In brackets after ≈: the same amount, converted by molar mass. Where two headings read alike, the source gives them in different places. Bounds are passed on as bounds.

Experiment [1] has as its target T1, recombinant E. coli FabI enzyme (Escherichia coli, UniProt P0AEK4).
T1 construct: 6-His (C); made in house; host or cells: prokaryotic expression vector
Briefly: FabI inhibition, fluorescence-based NADH assay. Format: biochemical. As to the method:
Compound inhibitory activity of FabI enzyme is measured in vitro by the IC50 determination using a fluorescent based assay.
The protein FabI from E. coli is prepared and purified using standard methods for recombinant protein expression after cloning of the gene in a prokaryotic expression vector.
The biochemical activity of the FabI enzyme is assessed using the following method.
The assay buffer “AB” contains 50 mM Hepes pH7.5, 100 μM Dithiothreitol, 0.006% Triton-X100. The following components are added in a black polystyrene Costar plate up to a final volume of 55 μL: 1.5 μL DMSO, or inhibitor dissolved in DMSO and 53.5 μL of a FabI/NADH/NAD+ mixture in AB. After 60 min of pre-incubation at room temperature, the reaction is started by addition of 5 μL of Crotonoyl-CoA to a final volume of 60 μL. This reaction mixture is then composed of 40 nM FabI (produced in house from E. coli, C-terminal 6-His tagged), 20 μM NADH (Biochemika), 10 μM NAD+ (Biochemika), 50 μM Crotonoyl-CoA (Biochemika) and compound at defined concentration. Fluorescence intensity of NADH (lex=360 nm, lem=520 nm) is measured immediately after Crotonoyl-CoA addition, and 2 hours later by a Fluostar Optima (BMG). Enzyme activity is proportional to the signal decrease from which inhibition percentages are derived. For IC50 determinations, the inhibitor is tested at 6 to 10 different concentrations, and the related inhibitions are fitted to a classical langmuir equilibrium model using XLFIT (IDBS).
In Vitro Inhibition of Recombinant E. coli FabI Enzyme by Selected Compounds of Formula (I).

The next experiment has as its system E. coli CIP 76.24. Briefly: MIC, broth microdilution. The format is cell-based. As to conditions: Escherichia coli, CIP76; broth microdilution, 37° C., 20 h; read-out: MIC E. coli CIP 76.24. Here is the method: (§1) The compounds of the present invention are useful antibacterial agents having a selective spectrum of activity in vitro against standard bacterial strains which are used to screen for activity against pathogenic bacteria. […] The activity is presented as Minimum Inhibitory Concentration (MIC) expressed in μg/ml.
(§2) Whole-cell antimicrobial activity was determined by broth microdilution method in microtiterplates. The compound was tested in serial 4-fold dilutions ranging from 0.06 to 64 mcg/mL. Test organisms were selected from the following laboratory strains: Staphylococcus aureus CIP 76.25, Staphylococcus aureus BAA39 MDR, Staphylococcus aureus NEM 14157 PeniR, Staphylococcus aureus CIP 54.146, Escherichia coli CIP 76.24. Bacteria were tested in Tryptic Soy (TS) or Mueller Hinton (MH) broth using an inoculum of 10^4 to 10^6 UFC/mL incubated at 37° C. for 20 h.
(§3) The minimum inhibitory concentration (MIC) was determined as the lowest concentration of compound at which no visible bacteria growth is observed (90% inhibition of absorbance of at […].)

The next experiment concerns S. aureus BAA39MDR. The experiment is described as follows: MIC, broth microdilution. The format is cell-based. As to conditions: Staphylococcus aureus, broth microdilution, 37° C., 20 h, read-out: MIC S. aureus BAA39MDR. As to the method:
as §1, §2, §3

In the next experiment the test system is S. aureus CIP 76.25. Briefly: MIC, broth microdilution. Format: cell-based. As to conditions: Staphylococcus aureus, CIP76; broth microdilution, 37° C., 20 h; read-out: MIC S. aureus CIP 76.25. Here is the method:
as §1, §2, §3

A further experiment relates to S. aureus NEM14157. The experiment is described as follows: MIC, broth microdilution. As to conditions: Staphylococcus aureus, NEM14157; broth microdilution, 37° C., 20 h; read-out: MIC S. aureus NEM14157. Format: cell-based. Here is the method:
as §1, §2, §3

The next experiment relates to S. aureus 1651 LRSA*. Briefly: MIC against resistant strains of S. aureus. Format: cell-based. As to conditions: Staphylococcus aureus, read-out: MIC S. aureus 1651 LRSA*. Here is the method:
as §2, §3
(§4) In Vitro Activities Against Resistant Stains of S. aureus

The subject of a further experiment is S. aureus 1652 LRSA. The experiment is described as follows: MIC against resistant strains of S. aureus. The format is cell-based. As to conditions: Staphylococcus aureus, read-out: MIC S. aureus 1652 LRSA. Here is the method:
as §2, §3, §4

The test system of another experiment is S. aureus 2012 VISA. The experiment is described as follows: MIC against resistant strains of S. aureus. Format: cell-based. As to conditions: Staphylococcus aureus, read-out: MIC S. aureus 2012 VISA. Here is the method: as §2, §3, §4
Another experiment has as its system S. aureus 2018 VISA*. The experiment is described as follows: MIC against resistant strains of S. aureus. Format: cell-based. As to conditions: Staphylococcus aureus, read-out: MIC S. aureus 2018 VISA*. Here is the method: as §2, §3, §4
The subject of a further experiment is S. aureus MRSA*. Briefly: MIC against resistant strains of S. aureus. As to conditions: Staphylococcus aureus, read-out: MIC S. aureus MRSA*. The format is cell-based. As to the method: as §2, §3, §4
In the next experiment the test system is S. aureus USA300 MRSA*. Briefly: MIC against resistant strains of S. aureus. Format: cell-based. As to conditions: Staphylococcus aureus, read-out: MIC S. aureus USA300 MRSA*.
The mark [2] stands for this setting: Methicillin Resistant S. aureus.

T1 sequence (P0AEK4 whole entry): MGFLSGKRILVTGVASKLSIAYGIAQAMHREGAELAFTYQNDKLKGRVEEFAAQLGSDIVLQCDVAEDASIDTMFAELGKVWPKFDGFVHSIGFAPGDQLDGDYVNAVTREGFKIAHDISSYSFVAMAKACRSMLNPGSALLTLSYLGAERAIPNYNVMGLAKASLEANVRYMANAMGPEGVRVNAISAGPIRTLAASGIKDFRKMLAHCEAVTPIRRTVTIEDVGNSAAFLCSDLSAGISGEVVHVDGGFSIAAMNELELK

Consider `CCc1ccc(Oc2cccnc2N)c(O)c1` [Example 21, 2-[(2-aminopyridin-3-yl)oxy]-5-ethylphenol], for which the IC50 in experiment [1] came out at 69 nM. Moreover, the MIC with E. coli CIP 76.24 worked out at 0.25 µg/mL (≈ 1.09 µM); in the experiment on S. aureus BAA39MDR, 0.25 µg/mL (≈ 1.09 µM); in the experiment with S. aureus CIP 76.25, 0.25 µg/mL (≈ 1.09 µM); in the experiment on S. aureus NEM14157, 0.25 µg/mL (≈ 1.09 µM); in the experiment with S. aureus 1651 LRSA* (Linezolid resistant S. aureus), 0.12 µg/mL (≈ 0.521 µM); in the experiment on S. aureus 1652 LRSA (Linezolid resistant S. aureus), 0.5 µg/mL (≈ 2.17 µM). Also, the MIC in the experiment with S. aureus 2012 VISA (VISA strain) was 0.12 µg/mL (≈ 0.521 µM); in the experiment with S. aureus 2018 VISA* (VISA strain) it was 0.25 µg/mL (≈ 1.09 µM); with S. aureus MRSA* (setting [2]), 0.12 µg/mL (≈ 0.521 µM); with S. aureus USA300 MRSA* (setting [2]), 0.5 µg/mL (≈ 2.17 µM).

With `CCCc1ccc(Oc2cc(F)nc(F)c2)c(O)c1` [Example 25B, 2-[(2,6-difluoropyridin-4-yl)oxy]-5-propylphenol], the IC50 in experiment [1] is 570 nM. The MIC in the experiment on E. coli CIP 76.24 was found to be 4 µg/mL (≈ 15.1 µM); in the experiment on S. aureus BAA39MDR it was 0.062 µg/mL (≈ 0.234 µM); with S. aureus CIP 76.25, 0.062 µg/mL (≈ 0.234 µM); with S. aureus NEM14157, 0.062 µg/mL (≈ 0.234 µM).

`Oc1cc(CC(F)(F)F)ccc1Oc1cccc(F)n1` [Example 27, 2-[(6-fluoropyridin-2-yl)oxy]-5-(2,2,2-trifluoroethyl)phenol]: in experiment [1] (recombinant E. coli FabI 40 nM, 60 min pre-incubation, NADH fluorescence, read-out: IC50), the IC50 came out at 470 nM. Moreover, the minimum inhibitory concentration (MIC) with E. coli CIP 76.24 is 4 µg/mL (≈ 13.9 µM); with S. aureus BAA39MDR, 0.25 µg/mL (≈ 0.87 µM); in the experiment with S. aureus CIP 76.25 it was 0.25 µg/mL (≈ 0.87 µM); in the experiment on S. aureus NEM14157 it was 0.25 µg/mL (≈ 0.87 µM).

`CCc1ccc(Oc2ccc(C(C)=O)cc2F)c(O)c1` [Example 29, 1-[4-(4-ethyl-2-hydroxyphenoxy)-3-fluorophenyl]ethanone]: the IC50 in experiment [1] was 150 nM. Besides, the MIC with E. coli CIP 76.24 stood at 1 µg/mL (≈ 3.65 µM); in the experiment with S. aureus BAA39MDR it was 0.062 µg/mL (≈ 0.226 µM); in the experiment on S. aureus CIP 76.25 it was 0.062 µg/mL (≈ 0.226 µM); with S. aureus NEM14157, 0.062 µg/mL (≈ 0.226 µM).

Regarding `CCc1ccc(Oc2ccc(NCCCCO)cc2F)c(O)c1` [Example 37, 5-ethyl-2-{2-fluoro-4-[(4-hydroxybutyl)amino]phenoxy}phenol], in experiment [1], the IC50 worked out at 410 nM. For the same compound, the MIC with E. coli CIP 76.24 was found to be 4 µg/mL (≈ 12.5 µM); with S. aureus BAA39MDR, 0.25 µg/mL (≈ 0.783 µM); in the experiment on S. aureus CIP 76.25, 0.062 µg/mL (≈ 0.194 µM); with S. aureus NEM14157, 0.25 µg/mL (≈ 0.783 µM).

For the compound `CCc1ccc(Oc2ccc(NCCCO)cc2F)c(O)c1` [Example 48, 5-Ethyl-2-[2-fluoro-4-(3-hydroxy-propylamino)-phenoxy]-phenol], the MIC came out at 4 µg/mL (≈ 13.1 µM) in the experiment on E. coli CIP 76.24; 0.062 µg/mL (≈ 0.203 µM) in the experiment with S. aureus CIP 76.25; 0.12 µg/mL (≈ 0.393 µM) in the experiment on S. aureus 1651 LRSA* (Linezolid resistant S. aureus); 0.5 µg/mL (≈ 1.64 µM) in the experiment on S. aureus 1652 LRSA (Linezolid resistant S. aureus); 0.12 µg/mL (≈ 0.393 µM) in the experiment on S. aureus 2012 VISA (VISA strain); 0.25 µg/mL (≈ 0.819 µM) in the experiment on S. aureus 2018 VISA* (VISA strain). The MIC was 0.06 µg/mL (≈ 0.196 µM) in the experiment on S. aureus MRSA* (setting [2]) and 0.5 µg/mL (≈ 1.64 µM) in the experiment on S. aureus USA300 MRSA* (setting [2]).

`CCc1ccc(Oc2ccc(S(C)(=O)=O)cc2F)c(O)c1` [Example 64, 5-ethyl-2-[2-fluoro-4-(methylsulfonyl)phenoxy]phenol]: in [1], the IC50 is 130 nM. The MIC came out at 1 µg/mL (≈ 3.22 µM) in the experiment on E. coli CIP 76.24, 0.062 µg/mL (≈ 0.2 µM) with S. aureus BAA39MDR, 0.25 µg/mL (≈ 0.806 µM) in the experiment with S. aureus CIP 76.25 and 0.062 µg/mL (≈ 0.2 µM) in the experiment with S. aureus NEM14157.

Turning to `CCCNS(=O)(=O)c1ccc(Oc2ccc(CC)cc2O)c(F)c1` [Example 71, 4-(4-ethyl-2-hydroxyphenoxy)-3-fluoro-N-propyl benzenesulfonamide], the IC50 in experiment [1] was determined as 330 nM. In addition, the MIC is 4 µg/mL (≈ 11.3 µM) in the experiment with E. coli CIP 76.24, 0.25 µg/mL (≈ 0.707 µM) in the experiment with S. aureus BAA39MDR, < 0.062 µg/mL with S. aureus CIP 76.25 and 0.062 µg/mL (≈ 0.175 µM) with S. aureus NEM14157.

For `CCc1cc(O)c(Oc2cccnc2N)cc1F` [Example 84, 2-(2-aminopyridin-3yloxy)-5-ethyl-4-fluorophenol], the IC50 in [1] amounted to 100 nM. Besides, the MIC in the experiment on E. coli CIP 76.24, in the experiment on S. aureus BAA39MDR, with S. aureus CIP 76.25 and in the experiment with S. aureus NEM14157 was 0.25 µg/mL (≈ 1.01 µM) each time.

On to `CCc1cc(O)c(Oc2cccnc2F)cc1F` [Example 87, 5-Ethyl-4-fluoro-2-(2-fluoropyridin-3yloxy)phenol], for which the IC50 in experiment [1] is 31 nM. The MIC in the experiment on E. coli CIP 76.24 worked out at 0.25 µg/mL (≈ 0.995 µM); with S. aureus BAA39MDR, 0.062 µg/mL (≈ 0.247 µM); with S. aureus CIP 76.25, 0.062 µg/mL (≈ 0.247 µM); in the experiment on S. aureus NEM14157 it was 0.016 µg/mL (≈ 0.0637 µM).

As to `CN[C@H](CC(C)C)C(=O)N[C@H]1C(=O)N[C@@H](CC(N)=O)C(=O)N[C@H]2C(=O)N[C@H]3C(=O)N[C@H](C(=O)N[C@H](C(=O)O)c4cc(O)cc(O)c4-c4cc3ccc4O)[C@H](O)c3ccc(c(Cl)c3)Oc3cc2cc(c3O[C@@H]2O[C@H](CO)[C@@H](O)[C@H](O)[C@H]2O[C@H]2C[C@](C)(N)[C@H](O)[C@H](C)O2)Oc2ccc(cc2Cl)[C@H]1O` [Vancomycin, reference compound], the MIC in the experiment with S. aureus 1651 LRSA* was determined as 1 µg/mL (≈ 0.69 µM); in the experiment with S. aureus 1652 LRSA, 1 µg/mL (≈ 0.69 µM); with S. aureus 2012 VISA (VISA), 8 µg/mL (≈ 5.52 µM); with S. aureus 2018 VISA* (VISA) it was 4 µg/mL (≈ 2.76 µM); with S. aureus MRSA*, 1 µg/mL (≈ 0.69 µM); in the experiment on S. aureus USA300 MRSA* it was 0.5 µg/mL (≈ 0.345 µM).

(Values after patent publication US9309179B2 (FAB PHARMA S.A.S., priority 2006, dated 2016).)
